Test results from patent US10750743B2, “Pyridazinone herbicides” (E.I. DU PONT DE NEMOURS AND COMPANY, priority 2015, dated 2020).

Legend:
Format in all cases: in vivo
[1] = system: barnyardgrass (Echinochloa crus-galli); test: Test A preemergence, directed soil spray, visual injury rating; conditions: 0 is no effect, 100 is complete control
Outline: (§1)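 Injury ratings, 0 (no effect) to 100 (complete control), were scored visually versus untreated plants roughly 10 d after treatment under greenhouse conditions. Treatments used surfactant-containing solvent formulations, sprayed onto soil preemergence or onto one- to two-leaf seedlings (2-10 cm) postemergence, grown in a loam-sand mix.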

[2] = system: foxtail, giant (giant foxtail, Setaria faberii); test: as above; conditions: 0 is no effect, 100 is complete control
Outline: as §1

kochia (Kochia scoparia) [3] = test: as above; conditions: 0 is no effect, 100 is complete control
Outline: as §1

[4] = system: pigweed (Amaranthus retroflexus); test: as above; conditions: 0 is no effect, 100 is complete control
Outline: as §1

[5] = system: ragweed (common ragweed, Ambrosia elatior); test: as above; conditions: 0 is no effect, 100 is complete control
Outline: as §1

[6] = system: ryegrass, It. (Italian ryegrass, Lolium multiflorum); test: as above; conditions: 0 is no effect, 100 is complete control
Outline: as §1

[7] = system: barnyardgrass (Echinochloa crus-galli); test: Test B flooded paddy test, visual rating; conditions: Flood, 250 g ai/ha, applied to paddy water, rated after 13 to 15 d
Outline: (§2)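 Ratings use a 0-100 visual scale, where 100 is complete control, and compare treated plants with controls after 13 to 15 d of greenhouse growth. Compound went straight into paddy water kept 3 cm over the soil surface, applied to seedlings at the 2-leaf stage.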

[8] = system: ducksalad (Heteranthera limosa); test: Test B flooded paddy test, visual rating; conditions: Flood, 250 g ai/ha, applied to paddy water, rated after 13 to 15 d
Outline: as §2

rice (Oryza sativa) = test: Test B flooded paddy test, visual rating; conditions: Flood, 250 g ai/ha, applied to paddy water, rated after 13 to 15 d
Outline: as §2

[9] = system: sedge, umbrella (small-flower umbrella sedge, Cyperus difformis); test: Test B flooded paddy test, visual rating; conditions: Flood, 250 g ai/ha, applied to paddy water, rated after 13 to 15 d
Outline: as §2

[10] = system: barnyardgrass (Echinochloa crus-galli); test: Test A postemergence application, visual injury rating; conditions: 0 to 100 scale, 0 no effect, 100 complete control
Outline: as §1

[11] = system: blackgrass (Alopecurus myosuroides); test: as above; conditions: 0 to 100 scale, 0 no effect, 100 complete control
Outline: as §1

corn (Zea mays) = test: as above; conditions: for Plant response rating (0 to 100 scale), Corn: 0 is no effect, 100 is complete control; for Corn plant response rating: 0 to 100 scale, 0 no effect, 100 complete control
Outline: as §1

[12] = system: foxtail, giant (giant foxtail, Setaria faberii); test: as above; conditions: for Plant response rating (0 to 100 scale), Foxtail, Giant: 0 is no effect, 100 is complete control; for Foxtail, Giant plant response rating: 0 to 100 scale, 0 no effect, 100 complete control
Outline: as §1

[13] = system: galium (catchweed bedstraw, Galium aparine); test: as above; conditions: for Plant response rating (0 to 100 scale), Galium: 0 is no effect, 100 is complete control; for Galium plant response rating: 0 to 100 scale, 0 no effect, 100 complete control
Outline: as §1

kochia (Kochia scoparia) [14] = test: as above; conditions: for Plant response rating (0 to 100 scale), Kochia: 0 is no effect, 100 is complete control; for Kochia plant response rating: 0 to 100 scale, 0 no effect, 100 complete control
Outline: as §1

[15] = system: pigweed (Amaranthus retroflexus); test: as above; conditions: for Plant response rating (0 to 100 scale), Pigweed: 0 is no effect, 100 is complete control; for Pigweed plant response rating: 0 to 100 scale, 0 no effect, 100 complete control
Outline: as §1

[16] = system: ragweed (common ragweed, Ambrosia elatior); test: as above; conditions: for Plant response rating (0 to 100 scale), Ragweed: 0 is no effect, 100 is complete control; for Ragweed plant response rating: 0 to 100 scale, 0 no effect, 100 complete control
Outline: as §1

[17] = system: ryegrass, It. (Italian ryegrass, Lolium multiflorum); test: as above; conditions: for Plant response rating (0 to 100 scale), Ryegrass, It.: 0 is no effect, 100 is complete control; for Ryegrass, It. plant response rating: 0 to 100 scale, 0 no effect, 100 complete control
Outline: as §1

[18] = system: wheat (Triticum aestivum); test: as above; conditions: for Plant response rating (0 to 100 scale), Wheat: 0 is no effect, 100 is complete control; for Wheat plant response rating: 0 to 100 scale, 0 no effect, 100 complete control
Outline: as §1

COC(=O)Oc1c(C)nn(C)c(=O)c1-c1ccc(Cl)c2sccc12 [Compound 59]
20: Plant response rating (0 to 100 scale), Kochia (kochia (Kochia scoparia) [3]; 125 g ai/ha) | Rice plant response rating (0 to 100 scale, 0 is no effect, 100 is complete control) (rice (Oryza sativa)) | Corn plant response rating (corn (Zea mays); 125 g ai/ha) | Plant response rating (0 to 100 scale), Galium ([13]; 31 g ai/ha)
80: Galium plant response rating ([13]; 125 g ai/ha)
60: Kochia plant response rating (kochia (Kochia scoparia) [14]; 125 g ai/ha)
0: Plant response rating (0 to 100 scale), Barnyardgrass ([1]; 31 g ai/ha) | Plant response rating (0 to 100 scale), Barnyardgrass ([1]; 125 g ai/ha) | Plant response rating (0 to 100 scale), Foxtail, Giant ([2]; 31 g ai/ha) | Plant response rating (0 to 100 scale), Foxtail, Giant ([2]; 125 g ai/ha) | Plant response rating (0 to 100 scale), Pigweed ([4]; 31 g ai/ha) | Plant response rating (0 to 100 scale), Pigweed ([4]; 125 g ai/ha) | Barnyardgrass plant response rating (0 to 100 scale, 0 is no effect, 100 is complete control) [7] | Ducksalad plant response rating (0 to 100 scale, 0 is no effect, 100 is complete control) [8] | Sedge, Umbrella plant response rating (0 to 100 scale, 0 is no effect, 100 is complete control) [9] | Barnyardgrass plant response rating ([10]; 31 g ai/ha) | Barnyardgrass plant response rating ([10]; 125 g ai/ha) | Blackgrass plant response rating ([11]; 31 g ai/ha) | Blackgrass plant response rating ([11]; 125 g ai/ha) | Plant response rating (0 to 100 scale), Corn (corn (Zea mays); 31 g ai/ha) | Plant response rating (0 to 100 scale), Foxtail, Giant ([12]; 31 g ai/ha) | Foxtail, Giant plant response rating ([12]; 125 g ai/ha) | Plant response rating (0 to 100 scale), Kochia (kochia (Kochia scoparia) [14]; 31 g ai/ha) | Plant response rating (0 to 100 scale), Pigweed ([15]; 31 g ai/ha) | Plant response rating (0 to 100 scale), Ragweed ([16]; 31 g ai/ha) | Ragweed plant response rating ([16]; 125 g ai/ha) | Plant response rating (0 to 100 scale), Ryegrass, It. ([17]; 31 g ai/ha) | Plant response rating (0 to 100 scale), Wheat ([18]; 31 g ai/ha) | Wheat plant response rating ([18]; 125 g ai/ha)
10: Plant response rating (0 to 100 scale), Kochia (kochia (Kochia scoparia) [3]; 31 g ai/ha) | Plant response rating (0 to 100 scale), Ryegrass, It. ([6]; 31 g ai/ha) | Plant response rating (0 to 100 scale), Ryegrass, It. ([6]; 125 g ai/ha) | Ryegrass, It. plant response rating ([17]; 125 g ai/ha)
30: Plant response rating (0 to 100 scale), Ragweed ([5]; 125 g ai/ha) | Pigweed plant response rating ([15]; 125 g ai/ha)
50: Plant response rating (0 to 100 scale), Ragweed ([5]; 31 g ai/ha)

CC(=O)Oc1c(C)nn(C)c(=O)c1-c1ccc(Cl)c2sccc12 [Compound 60]
20: Plant response rating (0 to 100 scale), Galium ([13]; 31 g ai/ha) | Plant response rating (0 to 100 scale), Kochia (kochia (Kochia scoparia) [14]; 31 g ai/ha)
10: Plant response rating (0 to 100 scale), Ryegrass, It. ([6]; 125 g ai/ha) | Ryegrass, It. plant response rating ([17]; 125 g ai/ha)
0: Plant response rating (0 to 100 scale), Barnyardgrass ([1]; 31 g ai/ha) | Plant response rating (0 to 100 scale), Barnyardgrass ([1]; 125 g ai/ha) | Plant response rating (0 to 100 scale), Foxtail, Giant ([2]; 31 g ai/ha) | Plant response rating (0 to 100 scale), Foxtail, Giant ([2]; 125 g ai/ha) | Plant response rating (0 to 100 scale), Kochia (kochia (Kochia scoparia) [3]; 31 g ai/ha) | Plant response rating (0 to 100 scale), Kochia (kochia (Kochia scoparia) [3]; 125 g ai/ha) | Plant response rating (0 to 100 scale), Pigweed ([4]; 31 g ai/ha) | Plant response rating (0 to 100 scale), Ragweed ([5]; 31 g ai/ha) | Plant response rating (0 to 100 scale), Ragweed ([5]; 125 g ai/ha) | Plant response rating (0 to 100 scale), Ryegrass, It. ([6]; 31 g ai/ha) | Barnyardgrass plant response rating (0 to 100 scale, 0 is no effect, 100 is complete control) [7] | Ducksalad plant response rating (0 to 100 scale, 0 is no effect, 100 is complete control) [8] | Rice plant response rating (0 to 100 scale, 0 is no effect, 100 is complete control) (rice (Oryza sativa)) | Sedge, Umbrella plant response rating (0 to 100 scale, 0 is no effect, 100 is complete control) [9] | Barnyardgrass plant response rating ([10]; 31 g ai/ha) | Barnyardgrass plant response rating ([10]; 125 g ai/ha) | Blackgrass plant response rating ([11]; 31 g ai/ha) | Blackgrass plant response rating ([11]; 125 g ai/ha) | Plant response rating (0 to 100 scale), Corn (corn (Zea mays); 31 g ai/ha) | Corn plant response rating (corn (Zea mays); 125 g ai/ha) | Plant response rating (0 to 100 scale), Foxtail, Giant ([12]; 31 g ai/ha) | Foxtail, Giant plant response rating ([12]; 125 g ai/ha) | Plant response rating (0 to 100 scale), Pigweed ([15]; 31 g ai/ha) | Plant response rating (0 to 100 scale), Ragweed ([16]; 31 g ai/ha) | Ragweed plant response rating ([16]; 125 g ai/ha) | Plant response rating (0 to 100 scale), Ryegrass, It. ([17]; 31 g ai/ha) | Plant response rating (0 to 100 scale), Wheat ([18]; 31 g ai/ha) | Wheat plant response rating ([18]; 125 g ai/ha)
70: Kochia plant response rating (kochia (Kochia scoparia) [14]; 125 g ai/ha)
100: Plant response rating (0 to 100 scale), Pigweed ([4]; 125 g ai/ha) | Galium plant response rating ([13]; 125 g ai/ha)
30: Pigweed plant response rating ([15]; 125 g ai/ha)

CCC(=O)Oc1c(C)nn(C)c(=O)c1-c1cccc2cc(C)oc12 [Compound 26]
90: Galium plant response rating ([13]; 125 g ai/ha)
80: Plant response rating (0 to 100 scale), Ryegrass, It. ([6]; 125 g ai/ha) | Ryegrass, It. plant response rating ([17]; 125 g ai/ha)
50: Ryegrass, It. plant response rating ([17]; 31 g ai/ha)
30: Plant response rating (0 to 100 scale), Kochia (kochia (Kochia scoparia) [3]; 125 g ai/ha) | Foxtail, Giant plant response rating ([12]; 125 g ai/ha) | Pigweed plant response rating ([15]; 31 g ai/ha) | Ragweed plant response rating ([16]; 125 g ai/ha)
70: Galium plant response rating ([13]; 31 g ai/ha)
20: Blackgrass plant response rating ([11]; 125 g ai/ha) | Kochia plant response rating (kochia (Kochia scoparia) [14]; 31 g ai/ha) | Kochia plant response rating (kochia (Kochia scoparia) [14]; 125 g ai/ha)
10: Plant response rating (0 to 100 scale), Pigweed ([4]; 125 g ai/ha) | Plant response rating (0 to 100 scale), Ragweed ([5]; 125 g ai/ha) | Plant response rating (0 to 100 scale), Ryegrass, It. ([6]; 31 g ai/ha) | Barnyardgrass plant response rating ([10]; 125 g ai/ha)
40: Pigweed plant response rating ([15]; 125 g ai/ha)
0: Plant response rating (0 to 100 scale), Barnyardgrass ([1]; 31 g ai/ha) | Plant response rating (0 to 100 scale), Barnyardgrass ([1]; 125 g ai/ha) | Plant response rating (0 to 100 scale), Foxtail, Giant ([2]; 31 g ai/ha) | Plant response rating (0 to 100 scale), Foxtail, Giant ([2]; 125 g ai/ha) | Plant response rating (0 to 100 scale), Kochia (kochia (Kochia scoparia) [3]; 31 g ai/ha) | Plant response rating (0 to 100 scale), Pigweed ([4]; 31 g ai/ha) | Plant response rating (0 to 100 scale), Ragweed ([5]; 31 g ai/ha) | Barnyardgrass plant response rating (0 to 100 scale, 0 is no effect, 100 is complete control) [7] | Ducksalad plant response rating (0 to 100 scale, 0 is no effect, 100 is complete control) [8] | Rice plant response rating (0 to 100 scale, 0 is no effect, 100 is complete control) (rice (Oryza sativa)) | Sedge, Umbrella plant response rating (0 to 100 scale, 0 is no effect, 100 is complete control) [9] | Barnyardgrass plant response rating ([10]; 31 g ai/ha) | Blackgrass plant response rating ([11]; 31 g ai/ha) | Corn plant response rating (corn (Zea mays); 31 g ai/ha) | Corn plant response rating (corn (Zea mays); 125 g ai/ha) | Foxtail, Giant plant response rating ([12]; 31 g ai/ha) | Ragweed plant response rating ([16]; 31 g ai/ha) | Wheat plant response rating ([18]; 31 g ai/ha) | Wheat plant response rating ([18]; 125 g ai/ha)
